Entries after “also recorded” stand apart in the source; their conditions may differ.
What was measured:
[1] = test system: V79 cells
Procedure: NADH was used as a co-factor for both enzymes.
All treatments were for 2 hours at 37° C. and the cells were then plated out for their resulting colony forming ability. The nitroreductase concentration was 2 μg/ml and NADH was used as a co-factor. The initial cell density was 2×10^5 /mL.
Various concentrations of the prodrug were incubated with 1 mL of V79 cells (2×10^5 /mL), NADH (500 μL) and NR (2, 5 or 10 μg/mL) in PBS. After 2 h at 37° C., the cells were harvested and assayed for colony forming ability.

[2] = target: E. coli nitroreductase (Escherichia coli, UniProt P38489); test: % drug reduction by E. coli nitroreductase during V79 cell treatment; assay type: biochemical; details: 2 hours at 37° C.
Description: The initial cell density was 2×10^5 /mL.

[3] = test system: nitroreductase-transduced NIH3T3 cells; test: Bystander effect, 3H-thymidine incorporation in mixtures of 3T3-NTR14 and untransduced NIH3T3 cells; assay type: cell-based; details: 50% transduced cells, FIG. 2
Description: FIG. 2. […] Results are plotted as the quantity of ^3 H-thymidine incorporation into live cells […] (Y-axis) versus the percentage of transduced cells in the sample population (X-axis).

[4] = test system: NTR-expressing NIH3T3 cells; test: Killing of serum-deprived (arrested) NTR-expressing NIH3T3 cells; assay type: cell-based; details: arrest by serum deprivation, FIG. 3a
Description: (§1) FIG. 3. Two graphs comparing the nitroreductase/CB 1954 and thymidine kinase/gancyclovir enzyme/prodrug systems.

[5] = test system: HB4a/NR cells; test: Enzymatic reduction of CB 1954 by HB4a/NR cell lysate (HPLC); assay type: biochemical, human; details: 100 μM CB 1954, 500 μM NADH, pH7, 37° C., FIG. 5
Procedure: CB 1954 (100 μM) and NADH (500 μM) were incubated with a cell lysate prepared by sonication (250 μl, 1 mg/mL protein) in 10 mM sodium phosphate buffer (pH7) at 37° C. At various times aliquots (10 μl) were injected onto a Partisphere SCX (110×4.7 mm) HPLC column and eluted isocratically (2 ml/min) with 50 mM NaH2 PO4 in 1% (v/v) methanol. The eluate was continuously monitored for absorption at 260, 310, 340 nm using a diode-array detector. Alternatively, [U-^3 H]CB 1954 was added to give an activity of 1.6×10^5 dpm per nmole). Samples (0.3 ml) were collected and their tritium activity determined by liquid scintillation counting. Protein concentration was determined by a standard method (Biorad), calibrated against bovine albumin.

[6] = test system: HB4a/NR cells; test: Cell survival of HB4a/NR cells, plates scored by eye for cell growth; assay type: cell-based, human; details: 2 hour exposure
Procedure: (§2) Cells were trypsinised and resuspended in fresh media at 2×10^5 cells per mL. They were then treated for two hours with CB 1954 (10 μl of appropriate stock in DMSO). The treated cells were then spun down, washed with fresh media, and plated out in triplicate at various concentrations. Cells were fixed and stained after 14 days incubation at 37° C. in a humidified atmosphere of 5% CO2 and 95% air.
(§3) The plating efficiency of both the HB4a/NR and HB4a/REP8 cell lines was poor and cells only grew when plated at a high initial cell density (1×10^4 per dish). These plates were scored by eye for cell growth. There is a dramatic difference in cell survival between the two cell lines.

[7] = Cell survival of HB4a/REP8 cells, plates scored by eye for cell growth; assay type: cell-based; details: human, 2 hour exposure, read-out: dose up to which no cytotoxicity is shown
Procedure: as §2, §3

[8] = test system: HB4a/NR cells; test: DNA interstrand crosslinks, sedimentation in alkaline sucrose; assay type: cell-based, human
Procedure: HB4a/NR cells were radiolabelled by growth for 48 hours in [^3 h]-thymidine. The cells were then treated with either 0, 10 or 50 μM CB 1954 for 24 hours and their DNA then analysed by sedimentation in alkaline sucrose.

[9] = test system: TK-expressing NIH3T3 cells; test: Killing of arrested TK-expressing NIH3T3 cells; assay type: cell-based; details: 10^-8 to 10^-3 M, FIG. 3b
Description: as §1

[10] = 50 μM drug + 500 μM NADH, no nitroreductase
[11] = 50 μM drug + nitroreductase 2 μg/ml + 500 μM NADH
[12] = 50 μM drug + nitroreductase 2 μg/ml, no NADH
[13] = 50 μM drug alone, no NADH, no nitroreductase

For `Cc1c2oc3c(C)ccc(C(=O)N[C@@H]4C(=O)N[C@H](C(C)C)C(=O)N5CCC[C@H]5C(=O)N(C)CC(=O)N(C)[C@@H](C(C)C)C(=O)O[C@@H]4C)c3nc-2c(C(=O)N[C@@H]2C(=O)N[C@H](C(C)C)C(=O)N3CCC[C@H]3C(=O)N(C)CC(=O)N(C)[C@@H](C(C)C)C(=O)O[C@@H]2C)c(NC(=O)OCc2ccc([N+](=O)[O-])cc2)c1=O`, the “cytotoxicity of the prodrug in the presence of NR” value ([1]; NR 2, 5 or 10 μg/mL, NADH, 2 h at 37° C., FIG. 1) was “greatly enhanced in the presence of NR”.

With `NC(=O)c1cc(N2CC2)c([N+](=O)[O-])cc1[N+](=O)[O-]` [CB 1954, 5-(aziridin-1-yl)-2,4-dinitrobenzamide] the “% DRUG REDUCTION” value [2, 10] was < 1.0%, the “% DRUG REDUCTION” value [2, 11] was 72% and the “% DRUG REDUCTION” value [2, 12] was < 1.0%. For the same molecule, the “% DRUG REDUCTION” value [2, 13] was < 1.0%, the “inhibition of 3H-thymidine incorporation” value [3] was 90% and the “effect of cell arrest on killing by the prodrug” value [4] was “does not affect their killing; also recorded: does not affect the relative cytotoxicity”. For the same molecule, the “decrease in the concentration of CB 1954” value [5] was “time dependent decrease”, the “dose at which cytotoxicity is exhibited” value [6] was 1.0 µM and the MNTC at 2 h [7] was > 100 µM. The DNA breaks ([8]; 10 μM CB 1954 for 24 hours) was 25 per 10^9 daltons of DNA, the DNA crosslinks ([8]; 10 μM CB 1954 for 24 hours) was “about 6 per 10^9 daltons of DNA” and the DNA breaks ([8]; 50 μM CB 1954 for 24 hours) was 28 per 10^9 daltons of DNA. For the same molecule, the DNA crosslinks ([8]; 50 μM CB 1954 for 24 hours) was 12 per 10^9 daltons of DNA.

For `Nc1nc(O)c2ncn(COC(CO)CO)c2n1` [GCV, gancyclovir], the “effect of cell arrest on killing by the prodrug” value [9] was “prevents GCV killing; also recorded: prevents gancyclovir (GCV) cytotoxicity”.

For `NC(=O)c1cc(N(CCCl)CCCl)c([N+](=O)[O-])cc1[N+](=O)[O-]` [SN23862, 5-(bis(2'-chloroethyl)amino)-2,4-dinitrobenzamide], the “% DRUG REDUCTION” value [2, 10] was < 1.0%, the “% DRUG REDUCTION” value [2, 11] was 95% and the “% DRUG REDUCTION” value [2, 12] was < 1.0%. The “% DRUG REDUCTION” value [2, 13] was < 1.0%.

B1: Nitroreductase: E. coli nitroreductase, enzyme that converts the prodrug into a cytotoxic drug (protein)
chain: MDIISVALKRHSTKAFDASKKLTPEQAEQIKTLLQYSPSSTNSQPWHFIVASTEEGKARVAKSAAGNYVFNERKMLDASHVVVFCAKTAMDDVWLKLVVDQEDADGRFATPEAKAANDKGRKFFADMHRKDLHDDAEWMAKQVYLNVGNFLLGVAALGLDAVPIEGFDAAILDAEFGLKEKGYTSLVVVPVGHHSVEDFNATLPKSRLPQNITLTEV
For B1, the “% SURVIVAL” value ([1]; nitroreductase 2 μg/ml alone, no drug, 2 hours at 37° C.) was 94%.
